# Laboratory results from US20230159532A1, “PARATHYROID HORMONE (PTH) RECEPTOR ANTAGONISTS AND USES THEREOF” (Crinetics Pharmaceuticals, Inc., priority 2021, published 2023).
# Molecular target: T1, human PTHR1 receptor (Homo sapiens, UniProt Q03431)
# T1 construct: purchased Eurofins HTS030M
# T1 sequence (Q03431 27-593): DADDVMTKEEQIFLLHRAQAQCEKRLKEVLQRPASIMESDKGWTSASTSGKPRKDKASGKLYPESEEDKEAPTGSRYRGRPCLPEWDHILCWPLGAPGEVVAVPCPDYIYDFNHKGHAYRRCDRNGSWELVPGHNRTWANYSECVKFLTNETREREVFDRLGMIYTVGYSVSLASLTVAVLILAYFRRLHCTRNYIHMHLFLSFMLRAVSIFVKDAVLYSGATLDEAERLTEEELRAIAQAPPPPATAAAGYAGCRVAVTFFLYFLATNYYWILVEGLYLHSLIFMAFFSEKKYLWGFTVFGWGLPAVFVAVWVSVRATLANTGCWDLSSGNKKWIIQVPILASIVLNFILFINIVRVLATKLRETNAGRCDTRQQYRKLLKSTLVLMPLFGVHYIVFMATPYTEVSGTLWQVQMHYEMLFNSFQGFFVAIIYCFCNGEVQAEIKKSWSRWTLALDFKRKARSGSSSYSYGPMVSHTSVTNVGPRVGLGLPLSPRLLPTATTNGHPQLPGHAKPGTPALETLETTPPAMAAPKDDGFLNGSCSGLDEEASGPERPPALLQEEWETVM
# Experiment: Competitive antagonist binding assay for hPTH-R1 (radioactive competition binding, SPA beads)
# Details: human PTHR1 membranes, [125I]-[Nle8,18,Tyr34]-PTH(1-34) 0.2 nM, 90 minutes at room temperature; read-out: hPTHR1 Ki
# In short: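 Human PTHR1 membranes on SPA beads incubated 90 min at room temperature with compound (typically 0-10,000 nM final) and 0.2 nM [125I]-[Nle8,18,Tyr34]-PTH(1-34) in HEPES buffer with MgCl2, CaCl2, BSA, Triton X-100 and protease inhibitors, pH 7.4. Scintillation signal read; Ki values derived.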
row,Ki [nM],Compound
1,100 to 1000,"CCN1C(=O)N(c2c(F)cc(NCCN3CCNC(=O)C3)cc2F)c2cc(C#N)ccc2-c2cc(Cl)cnc21 [1-128, 4-chloro-10-(2,6-difluoro-4-{[2-(3-oxopiperazin-1-yl)ethyl]amino}phenyl)-8-ethyl-9-oxo-6,8,10-triazatricyclo[9.4.0.0^2,7]pentadeca-1(11),2(7),3,5,12,14-hexaene-13-carbonitrile]"
2,100 to 1000,"CNCCNc1ccc(N2C(=O)N(C)c3ncccc3-c3ccc(Cl)cc32)cc1 [2-1, 13-chloro-8-methyl-10-(4-{[2-(methylamino)ethyl]amino}phenyl)-6,8,10-triazatricyclo[9.4.0.0^2,7]pentadeca-1(11),2(7),3,5,12,14-hexaen-9-one]"
3,< 100,"CCCN1C(=O)N(c2c(F)cc(NCCNC)cc2F)c2cc(C#N)ccc2-c2cc(Cl)cnc21 [1-119, 4-chloro-10-(2,6-difluoro-4-{[2-(methylamino)ethyl]amino}phenyl)-9-oxo-8-propyl-6,8,10-triazatricyclo[9.4.0.0^2,7]pentadeca-1(11),2(7),3,5,12,14-hexaene-13-carbonitrile]"
4,< 100,"CCN1C(=O)N(c2c(F)cc(NCCNC3CCOC3)cc2F)c2cc(Cl)ccc2-c2cc(F)cnc21 (stereo not shown) [1-20, 13-chloro-10-[2,6-difluoro-4-({2-[(oxolan-3-yl)amino]ethyl}amino)phenyl]-8-ethyl-4-fluoro-6,8,10-triazatricyclo[9.4.0.0^2,7]pentadeca-1(11),2(7),3,5,12,14-hexaen-9-one]"
5,< 100,"CCN1C(=O)N(c2c(F)cc(NCCNC[C@H](O)CO)cc2F)c2cc(C#N)ccc2-c2cc(Cl)cnc21 [1-171, 4-chloro-10-{4-[(2-{[(2S)-2,3-dihydroxypropyl]amino}ethyl)amino]-2,6-difluorophenyl}-8-ethyl-9-oxo-6,8,10-triazatricyclo[9.4.0.0^2,7]pentadeca-1(11),2(7),3,5,12,14-hexaene-13-carbonitrile]"
6,< 100,"CNCCNc1cc(F)c(N2C(=O)N(C(C)C)c3ncc(Cl)cc3-c3ccc(Cl)cc32)c(F)c1 [1-39, 4,13-dichloro-10-(2,6-difluoro-4-{[2-(methylamino)ethyl]amino}phenyl)-8-(propan-2-yl)-6,8,10-triazatricyclo[9.4.0.0^2,7]pentadeca-1(11),2(7),3,5,12,14-hexaen-9-one]"
7,< 100,"CCN1C(=O)N(c2c(F)cc(NCCN[C@@H](C)CO)cc2F)c2cc(C#N)ccc2-c2cc(F)cnc21 [1-213, 10-{2,6-difluoro-4-[(2-{[(2S)-1-hydroxypropan-2-yl]amino}ethyl)amino]phenyl}-8-ethyl-4-fluoro-9-oxo-6,8,10-triazatricyclo[9.4.0.0^2,7]pentadeca-1(11),2(7),3,5,12,14-hexaene-13-carbonitrile]"
8,< 100,"CCN1C(=O)N(c2c(F)cc(NCCNCCO)cc2F)c2cc(Cl)cc(F)c2-c2cc(F)cnc21 [1-95, 13-chloro-10-[2,6-difluoro-4-({2-[(2-hydroxyethyl)amino]ethyl}amino)phenyl]-8-ethyl-4,15-difluoro-6,8,10-triazatricyclo[9.4.0.0^2,7]pentadeca-1(11),2(7),3,5,12,14-hexaen-9-one]"
9,< 100,"CCN1C(=O)N(c2c(F)cc(NCCN[C@H]3C[C@H](O)C3)cc2F)c2cc(C#N)ccc2-c2cc(C(F)(F)F)cnc21 [1-224, 10-{2,6-difluoro-4-[(2-{[(1r,3r)-3-hydroxycyclobutyl]amino}ethyl)amino]phenyl}-8-ethyl-9-oxo-4-(trifluoromethyl)-6,8,10-triazatricyclo[9.4.0.0^2,7]pentadeca-1(11),2(7),3,5,12,14-hexaene-13-carbonitrile]"
10,< 100,"CCN1C(=O)N(c2c(F)cc(NCCNCCN(C)C)cc2F)c2cc(C#N)ccc2-c2cc(Cl)cnc21 [1-132, 4-chloro-10-{4-[(2-{[2-(dimethylamino)ethyl]amino}ethyl)amino]-2,6-difluorophenyl}-8-ethyl-9-oxo-6,8,10-triazatricyclo[9.4.0.0^2,7]pentadeca-1(11),2(7),3,5,12,14-hexaene-13-carbonitrile]"
11,< 100,"CCN1C(=O)N(c2c(F)cc(NCCNCCO)cc2F)c2cc(Cl)cc(OC)c2-c2cc(F)cnc21 [1-88, 13-chloro-10-[2,6-difluoro-4-({2-[(2-hydroxyethyl)amino]ethyl}amino)phenyl]-8-ethyl-4-fluoro-15-methoxy-6,8,10-triazatricyclo[9.4.0.0^2,7]pentadeca-1(11),2(7),3,5,12,14-hexaen-9-one]"
12,< 100,"CCN1C(=O)N(c2c(F)cc(NCCNC)cc2F)c2cc(C(F)(F)F)ccc2-c2cc(F)cnc21 [1-66, 10-(2,6-difluoro-4-{[2-(methylamino)ethyl]amino}phenyl)-8-ethyl-4-fluoro-13-(trifluoromethyl)-6,8,10-triazatricyclo[9.4.0.0^2,7]pentadeca-1(11),2(7),3,5,12,14-hexaen-9-one]"
13,< 100,"CCN1C(=O)N(c2c(F)cc(NCCNCC3CCC(=O)N3)cc2F)c2cc(C#N)ccc2-c2cc(Cl)cnc21 (stereo not shown) [1-176, 4-chloro-10-{2,6-difluoro-4-[(2-{[(5-oxopyrrolidin-2-yl)methyl]amino}ethyl)amino]phenyl}-8-ethyl-9-oxo-6,8,10-triazatricyclo[9.4.0.0^2,7]pentadeca-1(15),2(7),3,5,11,13-hexaene-13-carbonitrile]"
14,< 100,"CCN1C(=O)N(c2c(F)cc(NCCNCCO)cc2F)c2cc(Cl)cc(Cl)c2-c2cc(F)cnc21 [1-37, 13,15-dichloro-10-[2,6-difluoro-4-({2-[(2-hydroxyethyl)amino]ethyl}amino)phenyl]-8-ethyl-4-fluoro-6,8,10-triazatricyclo[9.4.0.0^2,7]pentadeca-1(11),2(7),3,5,12,14-hexaen-9-one]"
15,< 100,"CCN1C(=O)N(c2c(F)cc(NCCNCCO)cc2F)c2cc(Cl)cc(C)c2-c2cc(Cl)cnc21 [1-51, 4,13-dichloro-10-[2,6-difluoro-4-({2-[(2-hydroxyethyl)amino]ethyl}amino)phenyl]-8-ethyl-15-methyl-6,8,10-triazatricyclo[9.4.0.0^2,7]pentadeca-1(11),2(7),3,5,12,14-hexaen-9-one]"
16,1000 to 10000,"CCN1C(=O)N(c2c(F)cc(NCCNC)cc2F)c2cc(Cl)ccc2-c2nc(C#N)ccc21 [3-16, 13-chloro-10-(2,6-difluoro-4-{[2-(methylamino)ethyl]amino}phenyl)-8-ethyl-9-oxo-3,8,10-triazatricyclo[9.4.0.0^2,7]pentadeca-1(11),2(7),3,5,12,14-hexaene-4-carbonitrile]"
17,< 100,"CCN1C(=O)N(c2c(F)cc(N3CC[C@@H](N)C3)cc2F)c2cc(Cl)cc(C)c2-c2cc(F)cnc21 [1-65, 10-{4-[(3R)-3-aminopyrrolidin-1-yl]-2,6-difluorophenyl}-13-chloro-8-ethyl-4-fluoro-15-methyl-6,8,10-triazatricyclo[9.4.0.0^2,7]pentadeca-1(11),2(7),3,5,12,14-hexaen-9-one]"
18,< 100,"CCN1C(=O)N(c2c(F)cc(NCCNCCNC(=O)OC)cc2F)c2cc(C#N)ccc2-c2cc(F)cnc21 [1-216, methyl N-[2-({2-[(4-{13-cyano-8-ethyl-4-fluoro-9-oxo-6,8,10-triazatricyclo[9.4.0.0^2,7]pentadeca-1(11),2(7),3,5,12,14-hexaen-10-yl}-3,5-difluorophenyl)amino]ethyl}amino)ethyl]carbamate]"
19,< 100,"CN1C(=O)N(c2c(F)cc(NCCNCCCC(=O)O)cc2F)c2cc(C#N)ccc2-c2cc(Cl)cnc21 [1-201, 4-({2-[(4-{4-chloro-13-cyano-8-methyl-9-oxo-6,8,10-triazatricyclo[9.4.0.0^2,7]pentadeca-1(11),2(7),3,5,12,14-hexaen-10-yl}-3,5-difluorophenyl)amino]ethyl}amino)butanoic acid]"
20,< 100,"CCN1C(=O)N(c2c(F)cc(NCCNC)cc2F)c2cc(C#N)ccc2-c2cc(F)ccc21 [3-19, 8-(2,6-difluoro-4-{[2-(methylamino)ethyl]amino}phenyl)-10-ethyl-14-fluoro-9-oxo-8,10-diazatricyclo[9.4.0.0^2,7]pentadeca-1(11),2(7),3,5,12,14-hexaene-5-carbonitrile]"
21,< 100,"CCN1C(=O)N(c2c(F)cc(N3CCCNCC3)cc2F)c2cc(C#N)ccc2-c2cc(Cl)cnc21 [1-143, 4-chloro-10-[4-(1,4-diazepan-1-yl)-2,6-difluorophenyl]-8-ethyl-9-oxo-6,8,10-triazatricyclo[9.4.0.0^2,7]pentadeca-1(11),2(7),3,5,12,14-hexaene-13-carbonitrile]"
22,< 100,"CC(C)N1C(=O)N(c2c(F)cc(NCCNCCO)cc2F)c2cc(Cl)ccc2-c2cc(F)cnc21 [1-106, 13-chloro-10-[2,6-difluoro-4-({2-[(2-hydroxyethyl)amino]ethyl}amino)phenyl]-4-fluoro-8-(propan-2-yl)-6,8,10-triazatricyclo[9.4.0.0^2,7]pentadeca-1(11),2(7),3,5,12,14-hexaen-9-one]"
